{"source": "patent US20240156764A1", "about": "“INHIBITION OF URACIL DNA GLYCOSYLASE IN THE OPEN CONFORMATION” (CASE WESTERN RESERVE UNIVERSITY, priority 2022, published 2024)", "key": {"[1]": {"test_system": "uracil removal (U:G base pair) in MCF-7 cells", "test": "Host-cell reactivation assay, uracil removal from reporter plasmid, MCF-7", "assay_type": "cell-based, human", "procedure": "(§1) A: MCF-7 cells were seeded at 50,000 cells per well in a 12-well plate. B: HAP cells (wild type or UNG gene knockout) were seeded at 75,000 cells per well in a 6-well plate. […] After 24 hours, cells were dissociated by trypsinization and analyzed by flow cytometry using an Atune NxT flow cytometer. Gating and compensation were determined by transfection of single-color controls. Reporter expression was calculated for each dose of ATA as previously described in publications and normalized to DMSO treatment.\n(§2) Panel A: 1.25 μM and panel B: 2.5 μM. Reporter expression was calculated for each dose of ATA as described in prior publications and normalized to DMSO treatment.\n(§3) Removal of uracil in cells was measured using a reporter plasmid containing a dU:dG base pair (referred to as BFP_U), as described previously. […] The reciprocal of BFP_U reporter expression was calculated for each experimental condition. […] This creates a premature stop codon, completely abolishing fluorescence. Removal of thymidine followed by insertion of dC opposite dG restores reporter fluorescence.\n(§4) Human breast cancer MCF-7 cells were seeded at 50,000 cells per well in a 12-well plate, while HAP cells (wild type or UNG knockout) were seeded at 75,000 cells per well in a 6-well plate. […] After 24 hours, cells were dissociated by trypsinization and analyzed by flow cytometry using an Atune NxT flow cytometer. […]"}, "[2]": {"test_system": "A:8oxoG (MPG, MUTYH) repair in MCF-7 cells", "test": "Host-cell reactivation assay, A:8oxoG reporter, MCF-7", "assay_type": "cell-based, human", "conditions": "ATA 2.5 μM"}, "human UDG [3]": {"molecular_target": "T1, human UDG (Homo sapiens, UniProt P13051)", "T1 sequence (P13051 whole entry)": "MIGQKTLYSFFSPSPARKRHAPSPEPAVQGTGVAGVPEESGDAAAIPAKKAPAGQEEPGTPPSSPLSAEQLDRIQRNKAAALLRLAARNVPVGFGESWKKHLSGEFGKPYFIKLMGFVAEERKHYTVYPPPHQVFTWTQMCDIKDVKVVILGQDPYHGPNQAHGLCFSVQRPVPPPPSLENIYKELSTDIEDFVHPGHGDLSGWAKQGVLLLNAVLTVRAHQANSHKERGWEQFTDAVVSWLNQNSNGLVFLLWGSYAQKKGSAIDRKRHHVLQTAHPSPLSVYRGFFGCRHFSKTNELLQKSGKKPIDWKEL", "test": "Time course of human UDG activity on uracil DNA hairpin", "assay_type": "biochemical", "design": "Bacterially expressed and purified full-length human UDG; made in house", "description": "RFU was monitored over time. Each point on plot represents an average of three replicates. Error bar represents standard deviation from the mean. […] Each data point on the plot is the average of 3 wells (DMSO condition). Error bars represent standard deviation from the mean. […] UDG protein was not added to each reaction. […] Fluorescently labeled FAM-uDNA hairpin was monitored over the melting of the DNA hairpin. […] Each point represents an average of 4 experimental wells. Y Error bars represent the standard deviation from the mean.\nTo better examine UDG inhibitor activity, we monitored human UDG activity over time."}, "[4]": {"test_system": "uracil removal in wild type HAP cells", "test": "Host-cell reactivation assay, uracil removal, wild type HAP cells", "assay_type": "cell-based, human", "conditions": "ATA 5.0 μM", "procedure": "as §1, §3\nas §4, with “cytometer. Gating and compensation were determined by transfection of single-color controls.” for “cytometer.”"}, "[5]": {"test_system": "T:G basepairs (TDG, MBD4) repair in MCF-7 cells", "test": "Host-cell reactivation assay, T:G reporter, MCF-7", "assay_type": "cell-based, human", "conditions": "ATA 2.5 μM", "procedure": "as §2\nRemoval of uracil in cells was measured using a reporter plasmid containing a dU:dG base pair (referred to as BFP_U), as described previously. In brief, dU is substituted into the transcribed strand at position 191 of the blue fluorescent protein (BFP) gene. When RNA polymerase II incorporates dA opposite dU, transcripts encoding wild type BFP are produced. Upon repair, dU is replaced by dC, leading to production of transcripts encoding a non-fluorescent protein. […] A corresponding cocktail of damage-free plasmids containing pmax BFP (100 ng per transfection), pmax GFP (100 ng per transfection), and carrier plasmid (800 ng per transfection) constituted the “undamaged” cocktail. After normalizing to expression of the pmax,GFP transfection control, expression of BFP_U in the damaged cocktail was normalized to similarly normalized expression of pmax_BFP in the undamaged cocktail. The reciprocal of BFP_U reporter expression was calculated for each experimental condition. […] This creates a premature stop codon, completely abolishing fluorescence. Removal of thymidine followed by insertion of dC opposite dG restores reporter fluorescence."}, "human UDG [6]": {"molecular_target": "T1, human UDG", "test": "Differential scanning fluorimetry (nanoDSF), intrinsic tryptophan fluorescence and scattering", "assay_type": "binding", "design": "Full-length UDG at 14 μM in 137 mM NaCl", "procedure": "The data for thermophoresis was recorded at 20° C. using the blue LED at 20% and IR-Laser at 40%. The isotherm derived from the raw data and fitted according to the law of mass action. […] Then 2 μL of 10× Sypro dye and 2 μL of ddH20 (Applied biosystems cat #4461141) were added. Monitoring of fluorescence took place for 2 hr (Bioraid CFX96, Hex filter, 25-97° C., 1.6° C./2 min). Negative (−) derivative RFU raw data and plots from the machine were obtained and analyzed. […] Melting temperature (Tm) value was taken directly from the midpoint on the −dRFU/dt vs. temperature graph. Each point on the graph represents an average of three data sets. Y error bars represent the standard deviation.\nDifferential scanning fluorimetry (DSF) measurements were performed on a Prometheus NT.48 instrument (NanoTemper Technologies, Munich, Germany). […] The capillaries were filled with 10 μL sample and placed on the sample holder. A temperature gradient of 1° C.·min^−1 from 25 to 90° C. was applied and the intrinsic protein fluorescence at 330 and 350 nm was recorded. Additional aggregation onset temperatures are detected via back-reflection light scattering. […] Therefore, analysis of single wavelength was used to determine the melting temperature."}}}
{"smiles": "O=C(O)C1=CC(=C(c2ccc(O)c(C(=O)O)c2)c2ccc(O)c(C(=O)O)c2)C=CC1=O", "note": "[ATA, aurintricarboxylic acid]", "values": [{"measurement": "uracil removal in MCF-7 cells", "setting": "[1]; ATA 2.5 μM, 24 hr", "value": "significantly inhibited uracil removal"}, {"measurement": "uracil removal in MCF-7 cells at increasing concentrations", "setting": "[1]; ATA up to 10 μM vs 2.5 μM", "value": "not statistically different from the 2.5 μM dose"}, {"measurement": "inhibition of repair of A:8oxoG basepair", "setting": "[2]", "value": "not inhibiting"}, {"measurement": "reduction of UDG-mediated un-quenching of u-DNA hairpin", "setting": "human UDG [3]; ATA below 250 nM, fixed DNA substrate, 5-hour time course", "value": "unable to significantly compete"}, {"measurement": "UDG activity over time", "setting": "human UDG [3]; ATA fixed dose of 500 nM, range of uracil DNA hairpin concentrations", "value": "persistently diminished UDG activity"}, {"measurement": "reduction of uracil removal in wild type cells", "setting": "[4]", "value": 1.8, "unit": "fold"}, {"measurement": "share of the effect of UDG knockout", "setting": "[4]", "value": 60, "unit": "%"}, {"measurement": "inhibition of repair of T:G basepair", "setting": "[5]", "value": "not inhibiting"}, {"measurement": "protein aggregation onset (scattering)", "setting": "human UDG [6]; UDG in the presence of ATA vs UDG alone", "value": "induced protein aggregation at lower temperatures than UDG alone"}, {"measurement": "mean melting temperature of UDG in the presence of ATA", "setting": "human UDG [6]; nanoDSF, 330 nm, UDG alone 53.5 °C", "value": 51, "unit": "°C"}]}
